Test results from patent publication US20190070183A1, “Targeting Casein Kinase-1 and PI3K/AKT/mTOR Pathways for Treatment of c-Myc-Overexpressing Cancers, Organ Transplant Associated Complications and Autoimmune Diseases” (The Trustees of Columbia University in the City of New York, priority 2015, published 2019).
Each block holds one molecule with its values, some of them ahead of it.

Experiments:
[1] = system: DLBCL cell line LY10; assay: Growth inhibition / viability of LY10 cells (CellTiter Glo), single agents and combinations, Bliss synergy; format: cell-based, human; conditions: LY10, 24 h, single agent
[2] = system: primary SLL cells; assay: Cytotoxicity in primary SLL cells (Cell Titer Glo); format: cell-based, human; conditions: 48 hours, 2.5, 5, and 7.5 nM
[3] = system: primary AITL cells; assay: Cytotoxicity in primary AITL cells; format: cell-based, human
[4] = system: PI3K-AKT-mTOR-eIF4F-Myc signal cascade in LY10 cells; conditions: LY10, 24 h, PI3K inhibitors 3 μM, proteasome inhibitors 2 nM, single or combined
[5] = Western blot, LY7 cells; format: cell-based, human; conditions: LY7 and LY10, 24 h
[6] = system: phosphorylation of 4EBP1 and protein level of c-Myc in LY7 cells; assay: Western blot, LY7 cells; format: cell-based, human; conditions: for expression of c-Myc at 24 h: single agents
[7] = biological target: T1, CK1ε (Homo sapiens, UniProt P49674); assay: CK1ε kinase activity assay (ADP-Glo, Promega)
T1 sequence (P49674 whole entry): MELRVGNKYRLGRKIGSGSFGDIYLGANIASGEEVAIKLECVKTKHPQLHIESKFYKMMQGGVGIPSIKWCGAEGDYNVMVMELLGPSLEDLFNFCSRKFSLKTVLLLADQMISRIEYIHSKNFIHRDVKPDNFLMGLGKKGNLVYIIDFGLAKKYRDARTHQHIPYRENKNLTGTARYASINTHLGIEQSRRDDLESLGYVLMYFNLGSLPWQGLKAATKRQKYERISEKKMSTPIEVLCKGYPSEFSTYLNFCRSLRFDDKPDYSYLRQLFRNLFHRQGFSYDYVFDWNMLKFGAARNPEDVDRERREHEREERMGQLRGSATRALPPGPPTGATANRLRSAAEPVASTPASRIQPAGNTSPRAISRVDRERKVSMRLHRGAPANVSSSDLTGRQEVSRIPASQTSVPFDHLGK

[8] = biological target: T1, CK1ε; assay: CK1ε autophosphorylation assay (calyculin A, Western blot); format: cell-based; parameters: Full-length recombinant human CK1ε (CK1epsilon) was expressed by baculovirus in Sf9 insect cells; GST (N); purchased Promega; host or cells: Sf9 insect cells (baculovirus)
[9] = biological target: T1, CK1ε; assay: Kinome profiling (Reaction Biology, radioisotope filter binding); conditions: cell free, 1 μM
[10] = system: caspase 3/7; assay: Activation of caspase 3/7 in LY10; format: cell-based, human; conditions: LY10, 24 h
Description: FIG. 3. […] FIG. 3L-N: PARP cleavage.

[11] = system: DLBCL cell line LY7; assay: LY7 viability (Cell Titer Glo); format: cell-based, human; conditions: for activity inhibiting LY7 lymphoma cells (viability): 24 h, 10-50 μM, single agents
[12] = system: patients with DLBCL; conditions: 9 patients; Westin 2014; cited from earlier work
[13] = system: primary CLL and MCL cells; assay: Cytotoxicity in primary CLL and MCL cells; conditions: 48 hours
[14] = system: cap dependent translation downstream of the 5′ UTR of c-MYC; assay: Bicistronic luciferase reporter assay for c-Myc 5'UTR driven translation in LY7; format: cell-based, human; conditions: LY7 stably expressing reporter, 24 hr, 25 μM
[15] = system: phosphorylated AKT at Ser473; assay: Inhibition of S473 p-AKT in serum-starved leukemia and lymphoma cell lines; format: cell-based, human; conditions: 1 μM, 4 hours
[16] = system: MOLT-4 cell line; assay: Subcutaneous xenograft model of T-ALL (MOLT-4) in NOD/SCID mice; format: in vivo; conditions: daily oral 150 mg/kg, day 24, p<0.001
[17] = system: patients with DLBCL; assay: Clinical trials in patients with DLBCL; format: in vivo, human

SMILES: CC(C)C[C@H](NC(=O)[C@H](Cc1ccccc1)NC(=O)c1cnccn1)B(O)O [Bortezomib, [(1R)-3-methyl-1-({(2S)-3-phenyl-2-[(pyrazin-2-ylcarbonyl)amino]propanoyl}amino)butyl]boronic acid]
- percentage of growth inhibition ([1]; 1 to 3 nM): did not produce significant inhibition
- percentage of growth inhibition ([1]; 4 to 8 nM): 42-90%
- inhibition of primary cells [2]: 10-80%
- single agent activity in AITL [3]: more potent than carfilzomib
- inhibition of phosphorylation of 4EBP1 [4]: marginal or no inhibition
- inhibition of phosphorylation of AKT [4]: comparable and modest inhibition

SMILES: CC(C)Oc1ccc(-c2nn([C@@H](C)c3nc4cccc(F)c4c(=O)n3-c3ccccc3)c3ncnc(N)c23)cc1F [CUX-03173]
- beta-catenin level [5]: inhibited beta-catenin
- reduction of protein level of c-Myc ([6]; LY7, 24 h): more effective than idelalisib and PF4800567
- inhibition of protein level of c-Myc ([6]; LY7 and LY10, 24 h): as potent as TGR-1202
- IC50 [7]: 9.4 µM
- autophosphorylation of CK1ε ([8]; LY7, 15 μM, then calyculin A): inhibited

SMILES: CC(C)C[C@H](NC(=O)[C@H](CCc1ccccc1)NC(=O)CN1CCOCC1)C(=O)N[C@@H](Cc1ccccc1)C(=O)N[C@@H](CC(C)C)C(=O)[C@@]1(C)CO1 [Carfilzomib, (S)-4-methyl-N—((S)-1-(((S)-4-methyl-1-((R)-2-methyloxiran-2-yl)-1-oxopentan-2-yl)amino)-1-oxo-3-phenylpropan-2-yl)-2-((S)-2-(2-morpholinoacetamido)-4-phenylbutanamido)pentanamide]
- percentage of growth inhibition ([1]; 1 to 2 nM): up to 35%
- inhibition of primary cells [2]: 10-90%
- inhibition of phosphorylation of 4EBP1 [4]: marginal or no inhibition
- inhibition of phosphorylation of AKT [4]: comparable and modest inhibition

- inhibition of kinase activity of CK1 epsilon [9]: not observed
SMILES: CC(Nc1ncnc2[nH]cnc12)c1cc2cccc(Cl)c2c(=O)n1-c1ccccc1 (stereo not drawn) [IPI-145]

SMILES: CC[C@H](Nc1ncnc2nc[nH]c12)c1nc2cccc(F)c2c(=O)n1-c1ccccc1 [Idelalisib]
- effect on caspase activation caused by bortezomib ([10]; 5 μM added to bortezomib): failed to augment
- suppression of phosphorylation of 4EBP1 and protein level of c-Myc ([6]; LY7, 6 hours, 25-50 μM): only at the concentration of 50 μM
- expression of c-Myc at 24 h ([6]; LY7, 24 h): rebounded
- single agent activity in AITL [3]: more effective than TGR-1202
- activity inhibiting LY7 lymphoma cells (viability) [11]: only mild and comparable activity
- inhibition of phosphorylation of 4EBP1 [4]: moderately inhibit
- inhibition of phosphorylation of AKT [4]: more effective than TGR-1202
- responses in patients with DLBCL [12]: did not produce any responses
- enhancement of cytotoxicity of bortezomib [13]: did not enhance
- IC50 [7]: > 50 µM
- inhibition of kinase activity of CK1 epsilon [9]: not observed

SMILES: Nc1ncnc2c1c(COc1cccc(Cl)c1)nn2C1CCOCC1 [PF4800567]
- suppression of phosphorylation of 4EBP1 and protein level of c-Myc ([6]; LY7, 6 hours, 25-50 μM): only at the concentration of 50 μM
- phosphorylation of p70S6K1 ([6]; LY7, 24 h): substantially increased
- reduction of ratio of LucR/LucF by 50% [14]: not
- activity inhibiting LY7 lymphoma cells (viability) [11]: only mild and comparable activity
- IC50 [7]: 0.0074 µM
- autophosphorylation of CK1ε (up-shifting of the CK1ε band) ([8]; LY7, 1 μM, 1 h pretreatment then calyculin A): no up-shifting

SMILES: CC(C)n1nc(-c2cc3cc(O)ccc3[nH]2)c2c(N)ncnc21 [PP242]
- phosphorylation of p70S6K1 ([6]; LY7, 24 h): potently inhibited
- phosphorylation of 4EBP1 at S65 ([6]; LY7, 24 h, 750 nM): markedly inhibited
- level of c-Myc ([6]; LY7, 24 h, PP242 treatment): moderately reduced

SMILES: CC(C)Oc1ccc(-c2nn([C@@H](C)c3oc4ccc(F)cc4c(=O)c3-c3cccc(F)c3)c3ncnc(N)c23)cc1F [TGR-1202]
- effect on caspase 3/7 activation by carfilzomib ([10]; 1 μM added to carfilzomib): markedly enhanced
- beta-catenin level [5]: inhibited beta-catenin
- suppression of phosphorylation of 4EBP1 and protein level of c-Myc ([6]; LY7, 6 h, 15-50 μM): more potent than idelalisib and PF4800567
- suppression of phosphorylation of 4EBP1 and protein level of c-Myc ([6]; LY7, 6 hours, 25-50 μM): potently suppressed
- reduction of protein level of c-Myc ([6]; LY7, 24 h): more effective than idelalisib and PF4800567
- inhibition of phosphorylation of 4EBP1 and protein level of c-Myc ([6]; LY7, 24 h, 25 μM): highly effective
- expression of c-Myc at 24 h ([6]; LY7, 24 h): not relieved
- activity inhibiting LY7 lymphoma cells (viability) [11]: significantly more effective than idelalisib and PF4800567
- potency in cytotoxicity assay ([11]; LY7, 24 h): most potent among these compounds
- synergy with PP242 inhibiting phosphorylation of 4EBP1 at T70 and cell viability ([11]; LY7, PP […], other drugs 5 and 15 μM): synergistic with PP242
- reduction of phosphorylation of AKT (Ser473) [15]: 43-87%
- tumor response in xenograft [16]: significantly shrank the tumors
- partial response in patients with DLBCL [17]: 3 of 14
- inhibition of phosphorylation of 4EBP1 [4]: moderately inhibit
- IC50 [7]: 6 µM
